Measurements taken from patent US10351519B2, “Sulfamate derivative compounds, processes for preparing them and their uses” (BIO-PHARM SOLUTIONS CO., LTD., priority 2016, dated 2019).

Tests used:
Assay type in all cases: in vivo
Sprague-Dawley rats [1] = assay: Antiallodynic activity on vincristine-induced pain model; conditions: intraperitoneally; for ED50: Rattus norvegicus, ip
Method: Male, Sprague-Dawley rats (160-180 g, Nara Bio, Korea) were habituated for 1 week before surgery and allowed free access to food and water throughout the experimentation. Room temperature and humidity were maintained at 24±2 and 50±10%, respectively.
The vincristine-induced pain model was established by the procedure of Natsuko et al. (2001) with minor modifications. Vincristine was intravenously infused continuously for 14 days using a mini-osmotic pump as follows: 30 ug/kg vincristine sulfate solution (Hospira, Australia) was diluted with 0.9% saline. The pumps (Alzet Model 2002, USA) were filled with the vincristine solution and primed by incubation at 37 for 4 hours before the infusion. Briefly, animal were put under gaseous anesthesia with isoflurane. A catheter made from PE-60 tube was inserted into an external jugular vein in rat. Sham controls were prepared in the same manner, with the external jugular vein exposed, but with the external jugular vein not cut down. […]
Tactile sensitivity (Mechanical allodynia) was evaluated using von Frey monofilaments before and after treatment, and animals were used withdrawal threshold value was less than 4 g. […] The tactile sensitivity for ipsilateral hind paw was measured using the up-and-down method (Dixon, 1980) with seven von Frey monofilaments (0.4, 1, 2, 4, 6, 8, and 15 g) to 3 trials. […] The 50% paw withdrawal threshold for each paw was calculated using the following formula: [Xth] log=[vFr] log+ky where [vFr] is the force of the last von Frey used, k=0.2249 which is the average interval (in log units) between the von Frey monofilaments, and y is a value that depends upon the pattern of withdrawal responses (Dixon, 1980).
Antiallodynic effect of compound was evaluated at the three dose, intraperitoneally administrated in a volume of 5 ul/g, bw in a vehicle of 30% (v/v) PEG or 20% (v/v) Tween 80. […]
The relative values compared to the sham (% control) were calculated and shown in Table 5, which show an antiallodynic effect of Compound 2&7 on vincristine-induced pain model in rats.

Sprague-Dawley rats [2] = assay: Antiallodynic activity on post operative-induced pain model; conditions: intraperitoneal injection; for ED50: Rattus norvegicus, ip, read-out: Post Operation ED50
Description: Male Sprague-Dawley rats (230-250 g, Orient Bio, Korea), were habituated at least 3 days before surgery and were allowed free access to food and water throughout the experimentation. Room temperature and humidity were maintained at 24±2 and 50±10%, respectively. The process of performing the post-operation model's surgery was adapted from Brennan et al (1996). At first, rats with allodynia (threshold valueless than 8 g) were excluded in Pre-von Frey Test. During the post-operation surgery, rats were anesthetized under gaseous anesthesia with 2% isoflurane. The rat was placed, lying face down on 37 degree warm plate to prevent against hypothermia. The ipsilateral plantar aspect (left side) of the hind paw was prepared in a sterile manner with a 10% povidone-iodine solution. A 1 cm longitudinal incision was made with a number 10 blade, through the skin and fascia of the ipsilateral plantar aspect of the foot, starting from 0.5 cm from the proximal edge of the heel and extending toward the toes. Rats' plantar muscles were elevated and incised longitudinally. After hemostasis with gentle pressure, the skin was opposed with 2 mattress sutures of 4-0 Dafilon.
After 24 hours of recovery, rats with a good response (threshold less than 4 g) in Pre-von Frey Test were selected. According to this response, we made three groups with each group having equal average responses: Group 1, post-operation and drug treated; Group 2, post-operation and vehicle treated; Group 3, no post-operation and vehicle treated. In this study, Group 3 was the sham control (positive) group. […]
For efficacy measure, the threshold value of group C was assigned 100% efficacy, and the percentage of the threshold values of group A compared to group C (for each different dose level) were calculated as the efficacies. Base on these efficacy values, ED50 was calculated using log fitting. […]
For pain threshold test, all animals were placed in a stainless steel meshed chamber and habituated for 30 min in the test cage. The tactile sensitivity of the ipsilateral hind paw was measured using the up-and-down method (Dixon, 1980) with seven von Frey monofilaments (0.4, 1, 2, 4, 6, 8, and 15 g) using 3 trials. The 50% paw withdrawal threshold for each paw was calculated using the following formula: [Xth] log=[vFr] log+ky, where [vFr] is the force of the last von Frey filament used, k=0.2249 which is the average interval (in log units) between the von Frey monofilaments, y which is a value that depends upon the pattern of withdrawal responses, and Xth which is the threshold value (Dixon, 1980). […]
The relative values compared to the sham (% control) were calculated and shown in Table 7, which show an antiallodynic effect of the compound of examples on Post operation-induced pain model in rats.

Sprague-Dawley rats [3] = assay: Lithium-pilocarpine induced epilepsy test, intervention; conditions: Rattus norvegicus, iv, i.v. at SE onset, read-out: Lithium pilocarpine model(inter) ED50
Method: Male Sprague-Dawley rats (purchased from Orient Bio Inc. Korea) of body weight 175 grams were used for these studies and 3 rats per cage were housed for 4-5 days. On the day prior to SE, rats received 127 mg/kg lithium chloride (Sigma, St. Louis, Mo., U.S.A.) intraperitoneally (i.p.). Approximately 18-20 h following this treatment, rats were given an i.p. injection of CD97 dose (30-43 mg/kg) pilocarpine (Sigma). An i.p. injection of 2 mg/kg methyl-scopolamine (Sigma) was administered 30 min prior to pilocarpine to block the effects of the muscarinic agonist on peripheral cholinergic receptors. Test drugs were dissolved in 20% tween80 (Sigma).
The drugs were administered intravenously (i.v.) in a volume of 2 ul/g body weight at SE onset. Pharmacological effects of all of the test materials were evaluated to compare test groups (n=3-6) with a control group (n=3-6). Control group was administered vehicle only. The animals were then transferred to observation cages and observed continuously for 90 min. Seizure was elicited in approximately 95% of the control group. Protection was defined as complete absence of seizure grade 3-5 (Racine scale; Racine, 1972) over the 90-min observation period. The effective dose of the compound necessary to protect 50% of the animals against seizures compared to controls (i.e. ED50) was determined by a curve fitting program (Excel 2007, Microsoft).

`C[C@H](OS(N)(=O)=O)[C@@H](O)c1c(Cl)cccc1Cl` [Example 7, (1S, 2S)-1-(2,6-dichlorophenyl)-1-hydroxypropan-2-yl sulfamate] was tested, and the ED50 (Sprague-Dawley rats [1]) was 10.3 mg/kg, the “Vincristine-induced pain model Peak Time” value (Sprague-Dawley rats [1]) was 0.5 h and the ED50 (Sprague-Dawley rats [2]) was 5.8 mg/kg. For the same compound, the “Post Operation Peak Time” value (Sprague-Dawley rats [2]) was 0.5 h and the ED50 (Sprague-Dawley rats [3]) was 23.3 mg/kg.

With `C[C@@H](OS(N)(=O)=O)[C@H](O)c1ccccc1Cl` [Example 2, (1R, 2R)-1-(2-chlorophenyl)-1-hydroxypropan-2-yl sulfamate] the ED50 (Sprague-Dawley rats [1]) was over 20 mg/kg.

With `C[C@@H](OS(N)(=O)=O)[C@H](O)c1c(Cl)cccc1Cl` [Example 8, (1R, 2R)-1-(2,6-dichlorophenyl)-1-hydroxypropan-2-yl sulfamate] the ED50 (Sprague-Dawley rats [2]) was 4.2 mg/kg, the “Post Operation Peak Time” value (Sprague-Dawley rats [2]) was 0.5 h and the ED50 (Sprague-Dawley rats [3]) was 44.8 mg/kg.
